According to patent US20110093959A1, “CRYPTOTIS PARVA SCREENING MODEL FOR ANTIEMETIC POTENTIAL” (priority 2008, published 2011):
Values joined by “and” are separate entries in the source; they are usually repeats but may differ in a detail not shown here. Equal entries are not always repeated.

Test system: 5-HT, 5-HIAA, dopamine and HVA tissue levels
Experiment: Monoamine and metabolite tissue levels after CIS (HPLC-ECD)
Format: in vivo, Cryptotis parva
Details: for increase in brainstem 5-HT tissue level vs vehicle: CIS 10 mg/kg i.p.; for frontal cortex 5-HIAA level: not significantly different from vehicle
Procedure: These parameters were used in our neurochemical studies. Prior to experimentation, shrews were habituated to the laboratory environment as described for the behavioral studies. […] Subgroups of each treatment were sacrificed by rapid decapitation at either 2 hr or 33 hr post-injection.
Brains were rapidly removed and dissected on an ice-cold petri dish, the frontal cortex and brainstem were immediately frozen on dry-ice and stored at […] until analysis. Likewise, each gut was rapidly removed and washed with ice-cold saline three times prior to sectioning into succeeding 2 cm portions starting from the end of the stomach (duodenal and jejunal sections, respectively), followed by rapid freezing as described above. Each frontal cortex, brainstem and intestinal sample was respectively homogenized (tissue tearer, setting 5 sec for 15 sec) in 1 ml, 2 ml, or 3 ml ice-cold 0.2 M perchloric acid respectively containing 0.3 M ethylenediamine-tetraacetic acid disodium (EDTA). A 0.1 ml portion of each homogenate was removed for protein analysis. The protein concentration was determined by the use of BCA protein assay kit (Pierce; Rockford, Ill.). Then, homogenates were centrifuged at 40,000 g for 30 min at 4° C. to precipitate protein. The supernatant was filtered through a 0.2 μm nylon filter in a microcentrifuge tube at 1,500 g for 10 min at 4° C. A 10 μl aliquot of each filtered supernatant was assayed for the presence of monoamines and their metabolites.
Monoamines and their metabolites were analyzed by high performance liquid chromatography with electrochemical detection (HPLC-ECD) based upon our established method (Darmani et al., 2003). Separation of 5-HT, dopamine and their corresponding metabolites (5-HIAA and HVA) from other electroactive compounds was achieved on a 10 cm×3.2 mm RP-C18 column (ODS 3 um packing; BAS Inc., W. Lafayette, Ind.) and a mobile phase containing 0.15 M chloroacetic acid, 0.12 M sodium hydroxide, 0.18 mM ethylenediamine-tetraacetic acid disodium (EDTA), 1.1 mM sodium octane sulfonic acid and 5% acetonitrile. The monoamines and their metabolites were separated and measured through the cited column via a Shumadzu L-ECD-6A detector, connected to a Shimadzu LC-10 AD pump and a C-R7Ae chromatopac integrator (Kyoto, Japan). The glassy carbon working electrode was set at a potential of 650 mV relative to an Ag/AgCl reference electrode. The detection limit for dopamine and 5-HT were 2 and 5 pg respectively, based on a signal to noise ratio of 3:1. Peak heights of unknowns were compared to the mean peak heights of a 200 pg standard solution (containing 5-HT, dopamine, 5-HIAA and HVA) which were run daily after every fifth tissue supernatant sample. The intestinal HVA concentrations could not be determined due to an unknown interfering peak in the gut tissue eluates.
When a significant dose and exposure interaction was found, then simple effects at a particular emesis phase was tested via a one-way ANOVA. Neurochemical data were initially analyzed by two-way analysis of variance (ANOVA) with drug dose (0 mg/kg and 10 mg/kg) and exposure time (2 hr and 33 hr) as factors. […] For each statistical test, a P value of<0.05 was necessary to achieve statistical significance.

[1] = CIS 0 and 10 mg/kg, 2 and 33 hour

N.N.[Cl][Pt][Cl] [CIS, cis-platinum(II)diamine dichloride]
brainstem dopamine levels [1]: no overall significant effect | duodenum dopamine levels [1]: no overall significant effect | frontal cortex serotonin levels [1]: no significant overall effect | duodenal tissue concentration of 5-HIAA (CIS 10 mg/kg): not significantly altered | increase in jejunal dopamine concentration (CIS 10 mg/kg at 33 hour vs 0 mg/kg control at 2 hour): 121% | increase in jejunal dopamine concentration (CIS 10 mg/kg at 33 hour vs 0 mg/kg control at 33 hour): 171% | frontal cortex HVA at 33 hour less than at 2 hour (CIS 10 mg/kg dose): 32.4% | jejunal 5-HT at 2 hour smaller than at 33 hours (CIS 10 mg/kg dose): 114.5% | brainstem 5-HT level at 33 hour greater than at 2 hour (CIS 10 mg/kg group): 33.9% | brainstem HVA at 33 hour greater than at 2 hour (CIS 10 mg/kg group): 37% | increase in brainstem 5-HT tissue level vs vehicle (2 hour): 68.2% | increase in brainstem 5-HT tissue level vs vehicle (33 hour): 25% | duodenal 5-HT concentrations (CIS 10 mg/kg, 2 and 33 hour): not significantly altered | frontal cortex dopamine tissue level vs control (CIS 10 mg/kg, 2 hour): significant increase | increase in brainstem 5-HIAA level vs vehicle (CIS 10 mg/kg, 2 hour): 43.8% | increase in brainstem HVA levels vs control (CIS 10 mg/kg, 2 hour): 65.5% | increase in jejunal 5-HIAA concentration vs control (CIS 10 mg/kg, 2 hour): 32.4% | reduction of jejunal 5-HT tissue concentration vs control (CIS 10 mg/kg, 2 hour): 49.1% | frontal cortex 5-HIAA level (CIS 10 mg/kg, 2 hour): 1.1±0.07 | decrease in frontal cortex HVA concentration vs vehicle (CIS 10 mg/kg, 33 hour): 35.9% | increase in brainstem 5-HIAA level vs vehicle (CIS 10 mg/kg, 33 hour): 26.7% | increase of jejunal 5-HT tissue concentration vs control (CIS 10 mg/kg, 33 hour): ~50% and 41.8% | frontal cortex 5-HIAA level (CIS 10 mg/kg, 33 hour): 0.91±0.11 | increase in brainstem HVA levels vs control (CIS 10 mg/kg, 33 hours): 27.7% | duodenal 5-HT at 33 hours greater than at 2 hour (CIS-treated animals): 48.5% | brainstem 5-HIAA at 33 hour greater than at 2 hour (CIS-treated group): 49.2%
